Common to all, as to type: functional
Experiment [1] concerns the target Dual specificity protein kinase CLK2 (Homo sapiens, UniProt P49760).
Experiment [2] addresses Protein kinase C zeta type (Homo sapiens, UniProt Q05513).
Experiment [3] concerns the target Serine/threonine-protein kinase TBK1 (Homo sapiens, UniProt Q9UHD2). Nature of the experiment: Navigating the Kinome. Panel member name: TBK1.
The target of a further experiment is Activin receptor type-1 (Homo sapiens, UniProt Q04771). Put plainly: Navigating the Kinome. Panel member name: ACVR1.
Sequence of Activin receptor type-1 (Q04771 whole entry): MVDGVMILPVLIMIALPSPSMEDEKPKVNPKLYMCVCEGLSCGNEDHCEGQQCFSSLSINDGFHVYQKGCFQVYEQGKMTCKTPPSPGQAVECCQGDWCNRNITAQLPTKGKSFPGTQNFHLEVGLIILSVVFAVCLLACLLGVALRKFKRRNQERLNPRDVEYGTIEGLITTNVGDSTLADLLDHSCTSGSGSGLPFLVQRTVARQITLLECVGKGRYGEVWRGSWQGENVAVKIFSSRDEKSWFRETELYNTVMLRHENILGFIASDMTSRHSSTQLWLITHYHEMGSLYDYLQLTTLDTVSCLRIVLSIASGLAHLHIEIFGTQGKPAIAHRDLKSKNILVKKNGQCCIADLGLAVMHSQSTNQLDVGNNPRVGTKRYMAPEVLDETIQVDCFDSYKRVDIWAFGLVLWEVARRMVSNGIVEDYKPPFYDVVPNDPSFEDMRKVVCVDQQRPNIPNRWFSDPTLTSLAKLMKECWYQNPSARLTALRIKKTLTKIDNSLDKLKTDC
Experiment [4] addresses Serine/threonine-protein kinase pim-1 (Homo sapiens, UniProt P11309).
The target in experiment [5] is Serine/threonine-protein kinase pim-3 (Homo sapiens, UniProt Q86V86).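 Also: value obtained as one member of a broad kinase panel profiling effort.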
Another experiment concerns the target Activated CDC42 kinase 1 (Homo sapiens, UniProt Q07912). Nature of the experiment: Navigating the Kinome. Panel member name: ACK1.
The target of experiment [6] is G protein-coupled receptor kinase 5 (Homo sapiens, UniProt P34947). Put plainly: Navigating the Kinome. Panel member name: GPRK5.
Sequence of G protein-coupled receptor kinase 5 (P34947 whole entry): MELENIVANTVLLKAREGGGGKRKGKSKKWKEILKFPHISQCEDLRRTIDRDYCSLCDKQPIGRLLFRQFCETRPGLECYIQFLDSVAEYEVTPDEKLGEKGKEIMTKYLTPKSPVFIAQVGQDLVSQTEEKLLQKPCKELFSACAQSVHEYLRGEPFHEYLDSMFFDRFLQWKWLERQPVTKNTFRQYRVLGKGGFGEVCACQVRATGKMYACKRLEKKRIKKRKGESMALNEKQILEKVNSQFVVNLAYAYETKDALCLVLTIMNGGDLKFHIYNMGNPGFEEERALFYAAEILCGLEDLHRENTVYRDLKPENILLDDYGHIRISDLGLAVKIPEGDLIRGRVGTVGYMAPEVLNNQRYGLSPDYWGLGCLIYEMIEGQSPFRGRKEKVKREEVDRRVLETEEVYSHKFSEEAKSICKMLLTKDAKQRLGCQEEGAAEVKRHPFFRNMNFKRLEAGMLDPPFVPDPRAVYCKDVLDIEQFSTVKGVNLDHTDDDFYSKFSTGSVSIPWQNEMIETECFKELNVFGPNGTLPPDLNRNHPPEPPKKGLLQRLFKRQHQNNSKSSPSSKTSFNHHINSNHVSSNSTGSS
For experiment [7], the target named is Cyclin-dependent kinase 5 (Homo sapiens, UniProt Q00535).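 Also: CDK5 measured as one member of a kinase profiling panel.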
Sequence of Cyclin-dependent kinase 5 (Q00535 whole entry): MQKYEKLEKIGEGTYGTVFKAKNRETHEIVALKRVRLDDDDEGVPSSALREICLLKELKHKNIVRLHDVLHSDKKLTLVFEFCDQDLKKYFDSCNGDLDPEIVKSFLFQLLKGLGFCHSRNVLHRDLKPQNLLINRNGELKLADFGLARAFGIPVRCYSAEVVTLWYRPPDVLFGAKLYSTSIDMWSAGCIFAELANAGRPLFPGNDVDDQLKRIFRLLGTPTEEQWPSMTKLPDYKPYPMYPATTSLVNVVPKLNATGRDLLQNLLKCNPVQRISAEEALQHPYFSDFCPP
Experiment [8] addresses Protein kinase C iota type (Homo sapiens, UniProt P41743).
The target in experiment [9] is Dual specificity tyrosine-phosphorylation-regulated kinase 1B (Homo sapiens, UniProt Q9Y463). Put plainly: Navigating the Kinome. Panel member name: DYRK1B.
Experiment [10] deals with Leucine-rich repeat serine/threonine-protein kinase 2 (Homo sapiens, UniProt Q5S007).
The target of experiment [11] is RAC-alpha serine/threonine-protein kinase (Homo sapiens, UniProt P31749).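 Also: AKT1 affinity measured as one member of a kinome-wide kinase profiling panel.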
Sequence of RAC-alpha serine/threonine-protein kinase (P31749 whole entry): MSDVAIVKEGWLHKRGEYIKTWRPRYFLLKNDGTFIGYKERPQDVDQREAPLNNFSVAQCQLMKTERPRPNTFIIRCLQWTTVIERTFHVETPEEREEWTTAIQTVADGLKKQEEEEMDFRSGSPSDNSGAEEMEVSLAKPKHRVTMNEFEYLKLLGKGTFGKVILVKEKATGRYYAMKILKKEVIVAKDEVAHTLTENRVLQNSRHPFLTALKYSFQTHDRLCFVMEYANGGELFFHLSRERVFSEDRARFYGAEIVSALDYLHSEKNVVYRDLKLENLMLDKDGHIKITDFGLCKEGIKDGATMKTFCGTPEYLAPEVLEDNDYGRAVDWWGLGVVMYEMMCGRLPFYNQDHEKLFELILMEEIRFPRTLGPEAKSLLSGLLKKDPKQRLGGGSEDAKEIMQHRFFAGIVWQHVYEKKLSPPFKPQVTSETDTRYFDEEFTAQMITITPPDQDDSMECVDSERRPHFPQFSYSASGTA
The target in experiment [12] is Cyclin-dependent kinase 8 (Homo sapiens, UniProt P49336). Nature of the experiment: Navigating the Kinome. Panel member name: CDK8.
Sequence of Cyclin-dependent kinase 8 (P49336 whole entry): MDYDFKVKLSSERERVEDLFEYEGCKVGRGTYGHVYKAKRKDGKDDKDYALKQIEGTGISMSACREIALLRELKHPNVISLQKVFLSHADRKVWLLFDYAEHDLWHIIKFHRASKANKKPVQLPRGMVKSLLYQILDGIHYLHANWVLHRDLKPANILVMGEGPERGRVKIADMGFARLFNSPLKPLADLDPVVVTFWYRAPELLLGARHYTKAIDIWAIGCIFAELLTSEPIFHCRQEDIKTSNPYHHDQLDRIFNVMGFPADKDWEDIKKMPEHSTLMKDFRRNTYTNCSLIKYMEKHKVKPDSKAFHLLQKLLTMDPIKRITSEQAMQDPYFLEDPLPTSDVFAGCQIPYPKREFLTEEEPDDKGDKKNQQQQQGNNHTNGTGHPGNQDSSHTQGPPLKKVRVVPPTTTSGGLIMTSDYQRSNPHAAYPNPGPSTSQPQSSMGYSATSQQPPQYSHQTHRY
The target in experiment [13] is Cyclin-dependent kinase 7 (Homo sapiens, UniProt P50613).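 Also: value comes from a kinome-wide kinase profiling panel in which CDK7 is one member.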
Sequence of Cyclin-dependent kinase 7 (P50613 whole entry): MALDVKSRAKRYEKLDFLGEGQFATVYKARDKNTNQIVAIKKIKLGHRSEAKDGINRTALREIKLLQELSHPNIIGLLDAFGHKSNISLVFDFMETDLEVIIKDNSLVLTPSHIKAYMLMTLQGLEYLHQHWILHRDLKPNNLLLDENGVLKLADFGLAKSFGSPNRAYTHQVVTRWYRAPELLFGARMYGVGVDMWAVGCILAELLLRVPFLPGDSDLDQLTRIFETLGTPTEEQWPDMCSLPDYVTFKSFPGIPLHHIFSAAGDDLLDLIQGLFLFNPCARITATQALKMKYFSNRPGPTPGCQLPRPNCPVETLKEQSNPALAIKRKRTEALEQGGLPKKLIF
Experiment [14] has as its target Macrophage-stimulating protein receptor (Homo sapiens, UniProt Q04912). Nature of the experiment: Navigating the Kinome. Panel member name: MST1R.
The target in experiment [15] is Inhibitor of nuclear factor kappa-B kinase subunit epsilon (Homo sapiens, UniProt Q14164). Put plainly: Navigating the Kinome. Panel member name: IKBKE.
The target of experiment [16] is Leukocyte tyrosine kinase receptor (Homo sapiens, UniProt P29376). Put plainly: Navigating the Kinome. Panel member name: LTK.
Experiment [17] has as its target Mitogen-activated protein kinase 14 (Homo sapiens, UniProt Q16539).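 Also: part of a kinome-wide panel, MAPK14 entry.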
For experiment [18], the target named is Tyrosine-protein kinase Lck (Homo sapiens, UniProt P06239).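 Also: lck was assayed as one member of a kinase panel.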
The target of experiment [19] is Rho-associated protein kinase 2 (Homo sapiens, UniProt O75116).
The target in experiment [20] is Cyclin-dependent kinase 2 (Homo sapiens, UniProt P24941).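 Also: CDK2 measured as one member of a broad kinome profiling panel.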
The target of experiment [21] is Ribosomal protein S6 kinase alpha-5 (Homo sapiens, UniProt O75582).
The next experiment deals with LIM domain kinase 1 (Homo sapiens, UniProt P53667). Nature of the experiment: Navigating the Kinome. Panel member name: LIMK1.
The target in the next experiment is Insulin receptor (Homo sapiens, UniProt P06213).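 Also: insulin receptor kinase tested as one member of a kinome-wide kinase panel.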
Experiment [22] has as its target Protein-tyrosine kinase 2-beta (Homo sapiens, UniProt Q14289).
Experiment [23] concerns the target Inhibitor of nuclear factor kappa-B kinase subunit alpha (Homo sapiens, UniProt O15111).
The target in experiment [24] is Calcium/calmodulin-dependent protein kinase type II subunit beta (Homo sapiens, UniProt Q13554).
In the next experiment the target is Focal adhesion kinase 1 (Homo sapiens, UniProt Q05397).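 Also: measured as one member of a kinome panel.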
For experiment [25], the target named is Vascular endothelial growth factor receptor 3 (Homo sapiens, UniProt P35916).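 Also: value from a kinome-wide profiling panel, with FLT4 as the panel member.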
Experiment [26] addresses Cyclin-dependent kinase 19 (Homo sapiens, UniProt Q9BWU1). Put plainly: Navigating the Kinome. Panel member name: CDC2L6.
Experiment [27] addresses Cyclin-dependent kinase 1 (Homo sapiens, UniProt P06493).
Experiment [28] has as its target Inhibitor of nuclear factor kappa-B kinase subunit beta (Homo sapiens, UniProt O14920).
The target of experiment [29] is Tyrosine-protein kinase receptor UFO (Homo sapiens, UniProt P30530).
In experiment [30] the target is Calcium/calmodulin-dependent protein kinase kinase 2 (Homo sapiens, UniProt Q96RR4). Nature of the experiment: Navigating the Kinome. Panel member name: CAMKK2.
A short description of experiment [31]: IC50 of insulin release inhibition, rat insulinoma INS-1E line, 5 mM glucose, cell-based (AID 1117331).

Calls of active or inactive are those of the source.

What is called Ki is a measure of affinity in units of concentration, obtained from inhibition or displacement. Broadly, the pKi is −log10 of the Ki, conventionally taken in molar units. By IC50 is commonly meant the point on the concentration scale where inhibition reaches its midpoint.

Sequence of Activated CDC42 kinase 1 (Q07912 whole entry): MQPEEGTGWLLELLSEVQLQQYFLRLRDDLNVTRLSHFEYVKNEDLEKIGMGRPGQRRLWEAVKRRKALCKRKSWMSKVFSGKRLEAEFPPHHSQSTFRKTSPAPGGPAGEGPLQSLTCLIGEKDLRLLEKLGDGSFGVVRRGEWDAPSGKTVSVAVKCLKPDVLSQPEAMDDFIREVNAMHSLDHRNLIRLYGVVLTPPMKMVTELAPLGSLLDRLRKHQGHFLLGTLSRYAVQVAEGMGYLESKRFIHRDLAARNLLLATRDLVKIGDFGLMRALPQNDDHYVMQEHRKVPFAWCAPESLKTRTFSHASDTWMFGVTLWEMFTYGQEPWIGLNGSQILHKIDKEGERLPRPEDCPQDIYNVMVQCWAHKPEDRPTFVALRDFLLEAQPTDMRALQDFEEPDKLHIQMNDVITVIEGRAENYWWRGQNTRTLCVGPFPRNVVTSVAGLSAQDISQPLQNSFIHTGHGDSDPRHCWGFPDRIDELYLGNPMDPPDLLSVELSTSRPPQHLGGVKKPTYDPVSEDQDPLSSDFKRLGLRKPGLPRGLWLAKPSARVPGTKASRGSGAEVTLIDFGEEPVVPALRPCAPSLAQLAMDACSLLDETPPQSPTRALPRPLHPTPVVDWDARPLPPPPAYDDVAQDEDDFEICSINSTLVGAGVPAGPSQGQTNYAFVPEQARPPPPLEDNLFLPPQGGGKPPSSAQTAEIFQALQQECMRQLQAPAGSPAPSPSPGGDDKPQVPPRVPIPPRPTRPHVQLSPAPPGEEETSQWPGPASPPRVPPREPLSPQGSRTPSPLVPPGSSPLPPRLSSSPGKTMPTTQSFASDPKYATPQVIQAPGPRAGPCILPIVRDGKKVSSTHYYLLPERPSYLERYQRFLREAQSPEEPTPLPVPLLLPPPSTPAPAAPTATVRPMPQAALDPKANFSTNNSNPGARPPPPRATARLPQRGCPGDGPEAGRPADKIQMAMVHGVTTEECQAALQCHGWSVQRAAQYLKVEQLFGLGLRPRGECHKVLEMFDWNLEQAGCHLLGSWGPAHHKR
Sequence of Protein kinase C zeta type (Q05513 whole entry): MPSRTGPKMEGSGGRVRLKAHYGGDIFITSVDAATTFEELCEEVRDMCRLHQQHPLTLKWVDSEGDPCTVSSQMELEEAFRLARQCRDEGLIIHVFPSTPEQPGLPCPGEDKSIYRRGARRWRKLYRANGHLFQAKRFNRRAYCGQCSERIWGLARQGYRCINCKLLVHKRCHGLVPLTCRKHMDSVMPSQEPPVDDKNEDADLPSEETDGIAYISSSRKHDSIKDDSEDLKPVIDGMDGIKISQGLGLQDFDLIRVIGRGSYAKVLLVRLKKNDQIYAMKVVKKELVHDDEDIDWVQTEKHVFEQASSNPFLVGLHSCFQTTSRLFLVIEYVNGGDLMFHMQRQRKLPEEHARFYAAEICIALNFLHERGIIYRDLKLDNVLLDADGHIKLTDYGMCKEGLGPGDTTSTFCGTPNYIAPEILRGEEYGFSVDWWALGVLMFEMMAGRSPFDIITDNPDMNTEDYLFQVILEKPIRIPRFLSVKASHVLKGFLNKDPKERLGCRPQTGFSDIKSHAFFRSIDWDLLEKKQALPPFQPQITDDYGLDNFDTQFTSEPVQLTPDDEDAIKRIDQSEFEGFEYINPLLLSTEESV
Sequence of Serine/threonine-protein kinase pim-1 (P11309 whole entry): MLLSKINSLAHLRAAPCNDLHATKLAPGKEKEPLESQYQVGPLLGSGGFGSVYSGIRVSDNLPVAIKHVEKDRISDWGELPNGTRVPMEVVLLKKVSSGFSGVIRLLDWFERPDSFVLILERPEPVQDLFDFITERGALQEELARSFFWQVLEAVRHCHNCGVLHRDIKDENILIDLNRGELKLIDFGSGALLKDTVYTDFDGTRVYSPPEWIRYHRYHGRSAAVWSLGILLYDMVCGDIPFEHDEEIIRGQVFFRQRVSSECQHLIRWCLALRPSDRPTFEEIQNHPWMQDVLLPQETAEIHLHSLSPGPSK

Regarding `NC(=O)c1cc(-c2ccnc(N)n2)[nH]c1-c1ccc(Cl)cc1Cl`, the Ki in [1] was > 2.51 nM (inactive); in [2], 794 nM (active); in experiment [3] it was > 3160 nM (inactive); at Activin receptor type-1 it was 2000 nM (active); in [4], 1580 nM (active); in experiment [5], 398 nM (active). Moreover, the Ki on Activated CDC42 kinase 1 was 1260 nM (active); in experiment [6], 2510 nM (active); in [7], 316 nM (active); in [8], 794 nM (active); in experiment [9], 0.631 nM (active); in [10] it was 316 nM (active). The Ki in experiment [11] is 7940 nM (active); in experiment [12], 15.8 nM (active); in experiment [13] it was 158 nM (active); in experiment [14], > 3980 nM (inactive); in experiment [15] it was > 3160 nM (inactive); in [16], > 2510 nM (inactive). Also, in experiment [17], the Ki is > 3980 nM (inactive). In addition, the pKi in experiment [2] was 6.1; on Activin receptor type-1 it was 5.7; in experiment [4] it was 5.8; in [5], 6.4; on Activated CDC42 kinase 1 it was 5.9; in [6], 5.6. The pKi is 6.5 in experiment [7]; 6.1 in [8]; 9.2 in [9]; 6.5 in experiment [10]; 5.1 in experiment [11]; 7.8 in experiment [12]. In [13], this molecule returned a pKi of 6.8.

As for `NC(COc1cncc(-c2ccc3c(c2)C(=Cc2ccco2)C(=O)N3)c1)Cc1c[nH]c2ccccc12` (centres undefined), the Ki in experiment [18] was 398 nM (active); in [19], 12.6 nM (active); in experiment [20], 126 nM (active); in experiment [21] it was 25.1 nM (active); at LIM domain kinase 1 it was 794 nM (active); at Insulin receptor it was > 5010 nM (inactive). Further, the Ki is > 1580 nM (inactive) in experiment [22]; 398 nM (active) in experiment [23]; 251 nM (active) in experiment [24]; > 1580 nM (inactive) on Focal adhesion kinase 1; 25.1 nM (active) in experiment [25]; > 100000 nM (inactive) in experiment [26]. In addition, the Ki was 251 nM (active) in [27], 1260 nM (active) in experiment [28] and 10 nM (active) in experiment [29].

Take `Cc1ccc(-n2nc(C(C)(C)C)cc2NC(=O)Nc2ccc(OCCN3CCOCC3)c3ccccc23)cc1` [DORAMAPIMOD]: the Ki in [30] was > 2510 nM (inactive). Also, in [31], the IC50 is > 33300 nM (inactive).

The values above are taken from ChEMBL document CHEMBL1201862, “PubChem BioAssay data set” (2004).
